{"source": "patent US8383129B2", "about": "“Employment of rotavirus proteins, derived proteins and peptides for the modulation of tissue permeability” (priority 2003, dated 2013)", "key": {"MDCK monolayers [1]": {"tested_on": "MDCK monolayers", "test": "Transepithelial electrical resistance (TER) across confluent MDCK monolayers", "conditions": "for TER of MDCK monolayers treated with synthetic cyclic peptides: 100 or 500 μg/ml, versus control cultures; for TER of epithelial (MDCK) monolayers: confluent monolayers (FIG. 1: after 30 min. of treatment); for TER after withdrawal of the protein from the culture media: monolayers washed and transferred to media without GST-VP8; for dose dependence of the effect upon TER: 0.4, 4 or 10 μg/ml", "procedure": "MDCK cells were cultured as previously described (Gonzalez-Mariscal et al., 1990) and used for experiments between passages 70-90.\nThe degree of sealing of tight junctions was evaluated by measuring the transepithelial electrical resistance (TER) across the monolayer. Standard procedures were followed (Gonzalez-Mariscal et al., 1990). Briefly, monolayers grown over Millipore filters were mounted between two Lucite chambers with an exposed area of 0.23 cm2. Current was delivered via Ag—AgCl electrodes placed at 2.0 cm form the monolayer; the voltage deflection elicited was measured with a second set of electrodes placed at 1.0 mm from the membrane. The contribution if the filter and the bathing solution was subtracted, and all values reported correspond exclusively to the monolayer. Each disk was used for a single determination.\nThe determination of the TER across an epithelial monolayer was done as described in Example 1."}, "[2]": {"tested_on": "pancreatic cancer and gastrointestinal tumors", "conditions": "cited from earlier work"}, "[3]": {"tested_on": "rats with streptozotocin induced diabetes", "test": "Blood glucose after insulin administration to diabetic rats", "assay_type": "in vivo, rat", "protocol": "(§1) A) Generation of Diabetic Rats. • Male Wistar rats (230-250 gr.) were maintained on PicoLab® Rodent Diet 20, sterilized by irradiation and water ad libitum, in the animal house (temperature 22 to 24° C., 50 to 55% humidity). Care and handling of the animals were in accordance to international recommended procedures. • Diabetes mellitus type I was induced with one intraperitoneal shot of streptozotocin (75 mg/Kg weight; Sigma, Cat. No. S0130), diluted in citrate buffer 0.1 M (Sigma, Cat. No. S4641) pH 4.5. Streptozotocin solution was prepared immediately before use and protected from light exposure.\n(§2) B) Determination of Glucose Concentration in Blood. • Using heparinized capillary tubing (Chase Scientific Glass Inc. Cat. No. 2501) a drop of blood was taken from the eye orbital sinus of the rats. Blood glucose concentration was determined using reactive strips (One Touch, LIFESCAN, Johnson & Johnson) and a commercial glucometer (One Touch Basic Plus, LIFESCAN, Johnson & Johnson). Glucose concentration was determined in healthy animals and in those that had received the streptozotocin intraperitoneal shot at least three days before being tested.\nC) Administration of Insulin to Diabetic Rats. • In order to study the changes in glucose concentration generated by the administration of insulin, the first blood sample was taken from diabetic animals that had fasted overnight. Immediately after, the animals received their food (Lab Diet 5053), and 30 minutes later they were treated according to the following protocols: 1) Human insulin of intermediate action (3-6 IU/rat; Humulin® N, HI-310, Lilly) was parenterally administered. 2) Human insulin of intermediate action (15-30 IU/rat; Humulin® N, HI-310, Lilly) was given orally through an esophagic rat cannula (Fine Science Tools; Cat. No. 18061-75), in a solution of 400 μl of NaHCO3 (1.5 g/100 ml, pH 8.3-8.4), to neutralize gastric acidity. 3) Employing an esophagic rat cannula, 100 μg of GST-VP8 and human insulin of intermediate action (15-30 IU/rat; Humulin® N, HI-310, Lilly) were administered orally in a solution of 400 μl NaHCO3 (1.5 g/100 ml, pH 8.3-8.4). 4) 100 μg of GST-VP8 were administered orally through an esophagic rat cannula. The level of blood glucose was determined at different times after the start of each of the above described procedures."}, "ZO-1": {"tested_on": "ZO-1", "test": "Immunolocalization of TJ protein ZO-1 in MDCK monolayers", "assay_type": "cell-based", "conditions": "4 μg/ml, 1 hr", "protocol": "(§3) MDCK cells were cultured in glass coverslips. Confluent cultures were exposed to 4 μg/ml of GST-VP8 for 1 hr. The cells were then fixed for 30 min with 2% p-formaldehyde in PBS, pH 7.4, and permeabilized for 3 min with 0.2% PBS-TX. Cells were washed five times with PBS and then blocked for 30 minutes with 1% BSA Ig free (Research Organics 1331-a). The monolayers were incubated overnight at 4° C. with rabbit polyclonal antibodies against ZO-1 (Zymed 61-7300, dilution 1:100), Claudin 3 (Zymed 34-1700, dilution 3 μgr/ml) or occludin (Zymed 71-1500, dilution 1:100 in 1% Ig-free BSA). After being washed five times with PBS, the coverslips were incubated for one hour at room temperature with a secondary antibody (FITC-conjugated goat anti-rabbit, catalogue no. 65-6111, diluted 1:100, Zymed). The monolayers were washed five times in PBS before being mounted with the antifade reagent Vectashield (Vector Laboratories Inc.). The fluorescence of the monolayers was examined using a confocal microscope (MRC600, Bio-Rad) with a Krypton-argon laser."}, "claudin-3": {"biological_target": "T1, claudin-3 (Canis lupus familiaris, UniProt Q95KM5)", "T1 construct": "endogenous in cells; host or cells: MDCK", "T1 sequence (Q95KM5 1-218)": "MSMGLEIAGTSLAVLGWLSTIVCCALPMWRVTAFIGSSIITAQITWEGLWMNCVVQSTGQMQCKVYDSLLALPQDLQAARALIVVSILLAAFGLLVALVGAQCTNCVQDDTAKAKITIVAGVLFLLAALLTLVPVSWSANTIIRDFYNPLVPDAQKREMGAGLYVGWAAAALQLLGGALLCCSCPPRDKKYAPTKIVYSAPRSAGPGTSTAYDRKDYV", "test": "Immunolocalization of TJ protein claudin-3 in MDCK monolayers", "assay_type": "cell-based", "conditions": "4 μg/ml, 1 hr", "protocol": "as §3"}, "occludin": {"biological_target": "T2, occludin (Canis lupus familiaris, UniProt Q28269)", "T2 construct": "endogenous in cells; host or cells: MDCK", "T2 sequence (Q28269 1-521)": "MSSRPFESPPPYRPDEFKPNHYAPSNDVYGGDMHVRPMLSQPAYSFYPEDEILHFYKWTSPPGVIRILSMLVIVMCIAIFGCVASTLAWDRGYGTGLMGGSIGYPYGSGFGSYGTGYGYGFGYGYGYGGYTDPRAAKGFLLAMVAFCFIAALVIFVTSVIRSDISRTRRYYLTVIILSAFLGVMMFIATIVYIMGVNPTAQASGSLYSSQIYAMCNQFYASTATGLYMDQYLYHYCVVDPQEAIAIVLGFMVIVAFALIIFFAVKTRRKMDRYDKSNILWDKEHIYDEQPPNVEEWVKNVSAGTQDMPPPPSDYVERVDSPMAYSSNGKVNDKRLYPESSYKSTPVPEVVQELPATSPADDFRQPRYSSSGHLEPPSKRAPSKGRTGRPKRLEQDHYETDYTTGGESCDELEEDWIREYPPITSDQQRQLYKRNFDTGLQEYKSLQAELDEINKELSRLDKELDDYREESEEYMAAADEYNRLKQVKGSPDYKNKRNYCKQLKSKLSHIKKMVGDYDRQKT", "test": "Immunolocalization of TJ protein occludin in MDCK monolayers", "assay_type": "cell-based", "conditions": "4 μg/ml, 1 hr", "protocol": "as §3"}, "MDCK monolayers [4]": {"tested_on": "MDCK monolayers", "test": "Calcium-switch assay for TJ assembly (development of TER)", "assay_type": "cell-based", "conditions": "4 μg/ml", "protocol": "The ability of VP8 to inhibit the development of TJ was assessed utilizing the Ca^2+ switch assay (Gonzalez-Mariscal et al., 1990). Cells were plated at confluency on Millipore filters and incubated for 1 hour in DMEM (normal calcium media, NC; 1.8 mM Ca^2+). Then, the resulting monolayers were washed three times with PBS without Ca^2+ and transferred to minimal essential medium without Ca^2+ (low calcium media, LC; 1-5 μM Ca^2+). Twenty hours later experimental monolayers were transferred to LC media containing 4 μg/ml of GST-VP8 or of GST-VP5 dissolved in LC media, while control monolayers were again incubated in LC media. After 30 minutes, the experimental monolayers were transferred to NC media containing 4 μg/ml of GST-VP8 or of GST-VP5. Control monolayers received instead NC media. The TER was measured at different time points after the monolayers were transferred to NC media."}, "TJ of MDCK monolayers": {"tested_on": "TJ of MDCK monolayers", "test": "Freeze-fracture analysis of TJ strands in MDCK monolayers", "assay_type": "cell-based", "conditions": "4 μg/ml, 1 hour", "protocol": "Confluent monolayers of MDCK cells were incubated for 1 hour with 4 μg/ml of GST-VP8 dissolved in DMEM, while control monolayers remained in DMEM. Freeze-fracture replicas were obtained from monolayers fixed with 2.5% glutaraldehyde for 30 minutes, and gradually infiltrated with glycerol up to a 20% concentration, in which they were left for 1 hour. The monolayers were then detached from the substrate and frozen in liquid nitrogen. Freeze fracture was carried out at −120° C., and 2×10^−6 mm Hg using a Balzers apparatus (BAF400T). After evaporation of platinum and carbon, the organic material was digested for 1 hour in chromic mixture. Replicas were extensively washed in distilled water and mounted in Formvar coated grids. The observations were done in an electron microscope JEOL 200EX.\nTo assess modifications in the pattern of TJ strands, we counted the number of strands intercepting lines drawn perpendicular to the main axis of the junction, every 48 nm, as well as the distance between the upper and lowermost strand. 59 and 54 μm of TJ networks were analysed respectively for control and VP8 treated monolayers.\nAs has been previously reported (Gonzalez-Mariscal et al., 1985) the amount of junction is defined by the following function:\nWhere ni is the number of strands in a segment of TJ, and % is the percentage in which that number of strands is present in the sample.\nTotal junctional width is defined as: […]\nWhere ni is the distance between the upper and lowermost filament in TJ segment, and %i is the percentage in which that width is present in the sample."}, "male Wistar rats": {"tested_on": "male Wistar rats", "test": "Induction of diabetes: blood glucose after streptozotocin", "assay_type": "in vivo, rat", "conditions": "75 mg/kg intraperitoneal, three days after injection, versus mock injection", "protocol": "as §1, §2"}}, "note": "Entries after “also recorded” stand apart in the source; their conditions may differ."}
{"molecule": "183NVTT186 (Rhesus Monkey Rotavirus) [SEQ. ID. No. 7]", "values": [{"measurement": "TER of MDCK monolayers treated with synthetic cyclic peptides", "setting": "MDCK monolayers [1]", "result": "significantly reduces the TER; also recorded: significantly lower TER"}]}
{"molecule": "TGFβ", "values": [{"measurement": "tumor growth", "setting": "[2]", "result": "significant reduction of tumor growth"}]}
{"molecule": "174IYTY177 (Rhesus Monkey Rotavirus) [SEQ. ID. No. 6]", "values": [{"measurement": "TER of MDCK monolayers treated with synthetic cyclic peptides", "setting": "MDCK monolayers [1]", "result": "no effect; also recorded: TER similar to that of control cultures"}]}
{"molecule": "144VVKT147 (Rhesus Monkey Rotavirus) [SEQ. ID. No. 4]", "values": [{"measurement": "TER of MDCK monolayers treated with synthetic cyclic peptides", "setting": "MDCK monolayers [1]", "result": "no effect; also recorded: TER similar to that of control cultures"}]}
{"molecule": "insulin: Human insulin of intermediate action (Humulin® N, HI-310, Lilly) [reference compound]", "values": [{"measurement": "blood glucose concentration, insulin administered orally alone", "setting": "[3]; 30 IU, oral", "result": "the concentration of glucose remains high; also recorded: does not diminish the blood glucose concentration"}, {"measurement": "blood glucose concentration, insulin administered parenterally", "setting": "[3]; Humulin, intermediate action, 6 IU, parenteral", "result": "decreases the blood glucose concentration"}]}
{"molecule": "GST-VP8: RRV VP8 fragment (VP4 gene nucleotides 1 to 750) cloned in pGEX-4T-1, fusion protein", "values": [{"measurement": "distribution of ZO-1 (immunofluorescence)", "setting": "ZO-1", "result": "strong immuno reactivity in the cytoplasm; also recorded: strong immunoreactivity in the cytoplasm"}, {"measurement": "distribution of claudin-3 (immunofluorescence)", "setting": "claudin-3", "result": "large areas almost devoid of lateral staining; also recorded: cell border staining becomes barely detectable in large areas of the monolayer"}, {"measurement": "distribution of occludin (immunofluorescence)", "setting": "occludin", "result": "broad and diffuse stain at the cell periphery; also recorded: diffuse and wide label at the cellular boundaries"}, {"measurement": "development of TER / epithelial paracellular barrier after transfer from low to normal calcium media", "setting": "MDCK monolayers [4]", "result": "delays the development of the epithelial paracellular barrier"}, {"measurement": "TER of epithelial (MDCK) monolayers", "setting": "MDCK monolayers [1]; 4 μg/ml", "result": "significant decrease in TER"}, {"measurement": "TER of epithelial (MDCK) monolayers", "setting": "MDCK monolayers [1]; 4 μg/ml, listed as VP8-GST", "result": "significantly reduces the TER"}, {"measurement": "TER after withdrawal of the protein from the culture media", "setting": "MDCK monolayers [1]; 4 μg/ml", "result": "recover their TER"}, {"measurement": "TER after withdrawal of the protein from the culture media", "setting": "MDCK monolayers [1]; 4 μg/ml, listed as GST-VPB", "result": "the TER of the monolayers is restored"}, {"measurement": "dose dependence of the effect upon TER", "setting": "MDCK monolayers [1]", "result": "dose-dependent decrease in TER"}]}
{"molecule": "VP8: polypeptide derived from rotavirus protein VP4; used in the experiments as GST or His fusion protein", "values": [{"measurement": "TJ freeze fracture pattern", "setting": "TJ of MDCK monolayers", "result": "induces the appearance of loose ends oriented perpendicular to the network of TJ fibrils"}, {"measurement": "distribution of the number of TJ strands", "setting": "TJ of MDCK monolayers; versus control monolayers", "result": "no change"}, {"measurement": "total amount of junction", "setting": "TJ of MDCK monolayers; versus control monolayers", "result": "no change"}, {"measurement": "Number of loose ends/linear amount of junction in μm", "setting": "TJ of MDCK monolayers; control monolayers 0.17", "result": 0.32}, {"measurement": "development of TER / epithelial paracellular barrier after transfer from low to normal calcium media", "setting": "MDCK monolayers [4]", "result": "a clear inhibition in the development of TER"}, {"measurement": "blood glucose concentration, insulin administered orally together with VP8", "setting": "[3]; VP8 100 μg and insulin 30 IU, oral", "result": "the blood glucose concentration diminishes; also recorded: diminishes significantly"}, {"measurement": "blood glucose concentration, VP8 administered orally alone", "setting": "[3]; VP8 100 μg, oral, no insulin", "result": "Only with the latter treatment the blood glucose concentration diminished"}, {"measurement": "TER of epithelial (MDCK) monolayers", "setting": "MDCK monolayers [1]; 4 μg/ml", "result": "diminishes the TER"}, {"measurement": "reversibility with time of the effect upon TER", "setting": "MDCK monolayers [1]; 4 μg/ml, protein kept in media", "result": "reversible with time; also recorded: in a reversible manner"}, {"measurement": "dose dependence of the effect upon TER", "setting": "MDCK monolayers [1]", "result": "dose dependent"}]}
{"molecule": "CN(N=O)C(=O)N[C@H]1C(O)O[C@H](CO)[C@@H](O)[C@@H]1O", "note": "(mixture of isomers) [streptozotocin]", "values": [{"measurement": "concentration of blood glucose", "setting": "male Wistar rats", "result": "significantly increased the level of glucose in the blood"}, {"measurement": "concentration of blood glucose", "setting": "male Wistar rats; listed as Streptozotocin", "result": "significantly increases the concentration of blood glucose"}]}
